Source: the NIST ThermoML archive (doi:10.1016/j.jct.2007.07.005)

Assay: xn = mol fraction of the nth substance listed
Conditions: Fluid (supercritical or subcritical phases), vibrating tube

CCCCCO [pentan-1-ol] + O=C=O
Conditions | mass density [kg/m3]
352.79 K, 11040 kPa, x2 = 0.4651 | 785.81
352.79 K, 12030 kPa, x2 = 0.4651 | 787.74
352.79 K, 13014 kPa, x2 = 0.4651 | 789.67
352.79 K, 13996 kPa, x2 = 0.4651 | 791.51
352.79 K, 15009 kPa, x2 = 0.4651 | 793.37
352.79 K, 16021 kPa, x2 = 0.4651 | 795.22
352.79 K, 17023 kPa, x2 = 0.4651 | 797.01
352.79 K, 18036 kPa, x2 = 0.4651 | 798.78
352.79 K, 19033 kPa, x2 = 0.4651 | 800.49
352.79 K, 20034 kPa, x2 = 0.4651 | 802.15
352.79 K, 21019 kPa, x2 = 0.4651 | 803.78
352.79 K, 22005 kPa, x2 = 0.4651 | 805.38
352.79 K, 23048 kPa, x2 = 0.4651 | 807.02
352.79 K, 24005 kPa, x2 = 0.4651 | 808.54
352.8 K, 9062 kPa, x2 = 0.3624 | 787.17
352.8 K, 10017 kPa, x2 = 0.3624 | 788.44
352.8 K, 10962 kPa, x2 = 0.3624 | 789.67
352.8 K, 12014 kPa, x2 = 0.3624 | 790.98
352.8 K, 13057 kPa, x2 = 0.3624 | 792.31
352.8 K, 13992 kPa, x2 = 0.3624 | 793.46
352.8 K, 14992 kPa, x2 = 0.3624 | 794.66
352.8 K, 16050 kPa, x2 = 0.3624 | 795.91
352.8 K, 16062 kPa, x2 = 0.8573 | 704.48
352.8 K, 17018 kPa, x2 = 0.3624 | 797.04
352.8 K, 17045 kPa, x2 = 0.8573 | 717.71
352.8 K, 17979 kPa, x2 = 0.3624 | 798.17
352.8 K, 18036 kPa, x2 = 0.8573 | 728.91
352.8 K, 19024 kPa, x2 = 0.8573 | 738.63
352.8 K, 19050 kPa, x2 = 0.3624 | 799.37
352.8 K, 20029 kPa, x2 = 0.3624 | 800.46
352.8 K, 20047 kPa, x2 = 0.8573 | 747.71
352.8 K, 21012 kPa, x2 = 0.8573 | 755.39
352.8 K, 21035 kPa, x2 = 0.3624 | 801.59
352.8 K, 21985 kPa, x2 = 0.3624 | 802.63
352.8 K, 22013 kPa, x2 = 0.8573 | 762.78
352.8 K, 23021 kPa, x2 = 0.3624 | 803.75
352.8 K, 23034 kPa, x2 = 0.8573 | 769.78
352.8 K, 24022 kPa, x2 = 0.3624 | 804.82
352.8 K, 24038 kPa, x2 = 0.8573 | 776.16
352.8 K, 25026 kPa, x2 = 0.3624 | 805.9
352.8 K, 25052 kPa, x2 = 0.8573 | 782.21
352.81 K, 3095 kPa, x2 = 0.0816 | 772.79
352.81 K, 4022 kPa, x2 = 0.0816 | 773.74
352.81 K, 5003 kPa, x2 = 0.0816 | 774.75
352.81 K, 5979 kPa, x2 = 0.0816 | 775.73
352.81 K, 7007 kPa, x2 = 0.0816 | 776.72
352.81 K, 7981 kPa, x2 = 0.0816 | 777.7
352.81 K, 9053 kPa, x2 = 0.0816 | 778.72
352.81 K, 10025 kPa, x2 = 0.0816 | 779.66
352.81 K, 11031 kPa, x2 = 0.0816 | 780.6
352.81 K, 11999 kPa, x2 = 0.0816 | 781.51
352.81 K, 13023 kPa, x2 = 0.0816 | 782.45
352.81 K, 14012 kPa, x2 = 0.0816 | 783.34
352.81 K, 15005 kPa, x2 = 0.7274 | 763.67
352.81 K, 15006 kPa, x2 = 0.0816 | 784.24
352.81 K, 15032 kPa, x2 = 0.9216 | 609.93
352.81 K, 15993 kPa, x2 = 0.0816 | 785.1
352.81 K, 16001 kPa, x2 = 0.9216 | 637.91
352.81 K, 16021 kPa, x2 = 0.7274 | 769.33
352.81 K, 17044 kPa, x2 = 0.9216 | 660.91
352.81 K, 17045 kPa, x2 = 0.7274 | 774.53
352.81 K, 17064 kPa, x2 = 0.0816 | 786
